Measured values published in US20260209249A1, “NOVEL TRICYCLIC COMPOUND AS KRAS G12D INHIBITOR, AND USE THEREOF” (SK Biopharmaceuticals Co., priority 2022, published 2026).

Key:
[1] = molecular target: T1, GDP-KRAS G12D mutant protein (Homo sapiens, UniProt P01116, G12D); assay: Differential scanning fluorimetry (DSF) binding affinity to GDP-KRAS G12D mutant protein; conditions: DSF thermal shift, 10 μM compound, 4 μg KRAS protein
T1 construct: purchased Daegu Gyeongbuk Medical Innovation Foundation (DGMIF), made to order
Summary of the method: (§1)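 Thermal shift ΔTm was measured at 10 μM compound over a 25–99 °C ramp (0.05 °C/s), read at 580 nm ex/623 nm em with SYPRO Orange (2×). The protein (4 μg) was preincubated with compound for 30 min at room temperature, in 50 mM HEPES pH 7.5 for GppNHp-KRAS G12D or in kit buffer for GDP-KRAS G12D.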

[2] = molecular target: T2, GppNHp-KRAS G12D mutant protein (Homo sapiens, UniProt P01116, G12D); assay: Differential scanning fluorimetry (DSF) binding affinity to GppNHp-KRAS G12D mutant protein; conditions: DSF thermal shift, 10 μM compound, 4 μg KRAS protein, 50 mM HEPES (pH 7.5)
T2 construct: purchased Daegu Gyeongbuk Medical Innovation Foundation (DGMIF), made to order
Summary of the method: as §1

[3] = system: ERK phosphorylation (pERK) induced by KRAS G12D mutation; assay: Inhibitory activity against ERK phosphorylation (pERK) induced by KRAS G12D mutation, immunofluorescence assay in AsPC-1 cells; type: cell-based; conditions: Homo sapiens, ASPC1, 3 h drug treatment, pERK (Thr202/Tyr204) signal normalized to DAPI
From the text: Test Example 2: Measurement of Inhibitory Activity Against ERK Phosphorylation (pERK) Induced by KRAS G12D Mutation (Immunofluorescence Assay)
Immunofluorescence is a method used to detect specific substances within cells or tissues through antigen-antibody interactions, and allows for the identification of the presence or absence of specific proteins by using antibodies labeled with various fluorescent dyes. After a primary antibody that recognizes a specific protein selectively binds to the epitope, a fluorescent antibody (secondary antibody) is bound to the primary antibody.
It was confirmed as follows that the compounds according to an embodiment of the present application inhibit phosphorylation of extracellular signal-regulated kinases (Phospho-ERK, pERK) induced by KRAS G12D mutation.
AsPC-1 cells were seeded at a density of 10,000 cells/well in RPMI-1640 medium containing 10% FBS and 1% Penicillin-Streptomycin in 384-well plates (Perkinelmer, #6057300) and allowed to attach for 16 h. After the cells attached to the plate, the cells were treated with drugs at a maximum concentration of 10 μM with a 3-fold serial dilution. After 3 h of drug treatment, the medium was removed and the cells were treated with 50 μL of 4% formaldehyde (Biosesang, #PC2031-050-00) for 20 min and washed three times with 50 μL of phosphate buffered saline (PBS).
50 μL of PBS containing 0.3% Triton X-100 (Sigma, #T8787-250 mL) was added and reacted for 20 minutes to allow antibody penetration into cells, and then the plate was washed three times with 50 μL of PBS. To block nonspecific binding of antibodies to the plate, 50 μL of PBS containing 2% BSA (sigma, #A7906-500G) and 0.01% Tween-20 (Sigma, #P1379-500 mL) (hereinafter referred to as PBS-T) was added, and reacted at room temperature for 2 hours.
To detect pERK, the primary antibody (cell signaling, #9101) was diluted 1:500 in PBS-T containing 2% BSA, 50 μL was added, and the plate was stored in a refrigerator at 4° C. for 16 hours to react, followed by washing three times with 50 μL of PBS-T. To visualize the primary antibody, the secondary antibody, i.e., anti-rabbit-Alexa Fluor 488 (ThermoFisher, #A11008), was diluted 1:1000 in PBS-T containing 2% BSA, 50 μL was added, and after reaction at room temperature for 1 hour, the plate was washed three times with 50 μL of PBS-T. Next, to visualize the nuclei of cells, DAPI (Thermofisher, #62248, 1 mg/mL) was diluted 1:1000 in PBS-T, 50 μL each was added, reacted at room temperature for 10 minutes, and washed three times with 50 μL of PBS-T. 50 μL of PBS-T was added to each well, and the plate was read for fluorescence value using HCS equipment (MOLECULAR DEVICES/ImageXpress Micro).
Data analysis was performed by normalizing the pERK (Thr202/Tyr204) signal to the DAPI signal and calculating the percentage relative to the DMSO as a control. The IC50 value was determined by fitting a four-parameter dose-response curve using the GraphPad Prism software (version 8.4.3), and interpolating the concentration at which 50% inhibition occurred. The results of calculating the inhibitory efficacy of the compounds according to one embodiment of the present application against KRAS G12D mutation-induced pERK activity are shown in Table 3.

[4] = system: KRAS G12D mutant pancreatic cancer cell line AsPC-1; assay: Cell viability assay using KRAS G12D mutant cells (AsPC-1, 3D culture, celltiter-glo 3D); type: cell-based; conditions: Homo sapiens, ASPC1, 5th day after compound treatment
Procedure: Test Example 3: Cell Viability Assay Using KRAS G12D Mutant Cells
The KRAS G12D mutant pancreatic cancer cell line AsPC-1 was obtained from the Korean Cell Line Bank (KCLB) and maintained in 100-mm dishes or T75 (75 cm^2) flasks using RPM11640+10% fetal bovine serum (FBS)+1% Penicillin-Streptomycin medium. The cells were cultured at 37° C. with 5% CO2. The number of viable cells was counted using Countess (Invitrogen).
When AsPC-1 cells reached 85-100% confluence in the flask, the cells were harvested using 1× trypsin/EDTA solution, and seeded into a 96-well plate for 3D culture at 1000 cells/100 μL/well. The next day, the compounds were diluted ⅕ with DMSO from 10 μM or 50 μM to 0.0001 μM or 0.0006 μM and treated 1:1 (v/v) in the plate where the cells were seeded.
Cell culture was terminated on the 5th day after compound treatment, and cell viability at each concentration was measured using the celltiter-glo 3D cell viability assay kit.
Cell viability assays were normalized to 100% for the DMSO-treated group and expressed as a percentage of the number of viable cells when treated with the compound.
Cell viability %=(average RLU of group treated with test substance−average RLU of untreated group)/(average RLU of group treated with DMSO−average RLU of untreated group)×100
The data were modeled using GraphPad Prism 9 (GraphPad Software) by applying a nonlinear regression curve fit with a four-parameter sigmoidal dose-response curve to determine cell viability as a function of compound concentration. The 50% inhibitory concentration (IC50) corresponds to the concentration at which the curve intersects the midpoint of cell viability. The results of the inhibitory effect of the compounds according to one embodiment of the present application on the viability of KRAS G12D mutant cells are presented in Table 4.

SMILES	GDP-KRAS G12D (ΔTmD, ° C.) [1]	GppNHp-KRAS G12D (ΔTmD, ° C.) [2]	IC50 [3]	IC50 [4]
C#Cc1c(F)ccc2cc(O)cc(-c3cc4nc(OC[C@@]56CCCN5C[C@H](F)C6)nc(N5C[C@H]6CC[C@@H](C5)N6)c4n4ccnc34)c12 [Example 2, 4-(1-((1 R,5S)-3,8-diazabicyclo[3.2.1]octan-3-yl)-3-(((2R,7aS)-2-fluorotetrahydro-1H-pyrrolizin-7a(5H)-yl)methoxy)imidazo[1′,2′:1,6]pyrido[3,2-d]pyrimidin-6-yl)-5-ethynyl-6-fluoronaphthalen-2-ol]	9.91 °C	5.61 °C	169 nM	226 nM
C#Cc1c(F)ccc2cc(O)cc(-c3cc4nc(OCC5(CN6CCOCC6)CC5)nc(N5C[C@H]6CC[C@@H](C5)N6)c4n4ccnc34)c12 [Example 7, 4-(1-((1 R,5S)-3,8-diazabicyclo[3.2.1]octan-3-yl)-3-((1-(morpholinomethyl)cyclopropyl)methoxy)imidazo[1′,2′:1,6]pyrido[3,2-d]pyrimidin-6-yl)-5-ethynyl-6-fluoronaphthalen-2-ol]	8.57 °C	3.24 °C	269 nM	109 nM
C#Cc1c(F)ccc2cc(O)cc(-c3cc4nc(OCC5(CN6CCOC[C@H]6C)CC5)nc(N5C[C@H]6CC[C@@H](C5)N6)c4n4ccnc34)c12 [Example 8, 4-(1-((1 R,5S)-3,8-diazabicyclo[3.2.1]octan-3-yl)-3-((1-(((R)-3-methylmorpholino)methyl)cyclopropyl)methoxy)imidazo[1′,2′:1,6]pyrido[3,2-d]pyrimidin-6-yl)-5-ethynyl-6-fluoronaphthalen-2-ol]	9.02 °C	3.39 °C	149 nM	50 nM
C#Cc1c(F)ccc2cc(O)cc(-c3cc4nc(OCC5(CN6CCC7(CC6)CC7(F)F)CC5)nc(N5C[C@H]6CC[C@@H](C5)N6)c4n4ccnc34)c12 [Example 9, 4-(1-((1R,5S)-3,8-diazabicyclo[3.2.1]octan-3-yl)-3-((1-((1,1-difluoro-6-azaspiro[2.5]octan-6-yl)methyl)cyclopropyl)methoxy)imidazo[1′,2′:1,6]pyrido[3,2-d]pyrimidin-6-yl)-5-ethynyl-6-fluoronaphthalen-2-ol]	8.87 °C	3.39 °C	165 nM	50 nM
C#Cc1c(F)ccc2cc(O)cc(-c3cc4nc(OCC5(CN6CCO[C@H](C)C6)CC5)nc(N5C[C@H]6CC[C@@H](C5)N6)c4n4ccnc34)c12 [Example 11, 4-(1-((1R,5S)-3,8-diazabicyclo[3.2.1]octan-3-yl)-3-((1-(((R)-2-methylmorpholino)methyl)cyclopropyl)methoxy)imidazo[1′,2′:1,6]pyrido[3,2-d]pyrimidin-6-yl)-5-ethynyl-6-fluoronaphthalen-2-ol]	9.74 °C	2.49 °C	174 nM	140 nM
C#Cc1c(F)ccc2cc(O)cc(-c3cc4nc(OCC5(CN6C[C@@H]7C[C@H]6CO7)CC5)nc(N5C[C@H]6CC[C@@H](C5)N6)c4n4ccnc34)c12 [Example 12, 4-(3-((1-(((1S,4S)-2-oxa-5-azabicyclo[2.2.1]heptan-5-yl)methyl)cyclopropyl)methoxy)-1-((1 R,5S)-3,8-diazabicyclo[3.2.1]octan-3-yl)imidazo[1′,2′:1,6]pyrido[3,2-d]pyrimidin-6-yl)-5-ethynyl-6-fluoronaphthalen-2-ol]	9.61 °C	2.65 °C	1060 nM	975 nM
C#Cc1c(F)ccc2cc(N)cc(-c3cc4nc(OC[C@@]56CCCN5C[C@H](F)C6)nc(N5[C@@H]6CC[C@H]5CNC6)c4n4ccnc34)c12 [Example 14, 4-(1-((1R,5S)-3,8-diazabicyclo[3.2.1]octan-8-yl)-3-(((2R,7aS)-2-fluorotetrahydro-1H-pyrrolizin-7a(5H)-yl)methoxy)imidazo[1′,2′:1,6]pyrido[3,2-d]pyrimidin-6-yl)-5-ethynyl-6-fluoronaphthalen-2-amine]	7.98 °C	4.73 °C	75 nM	53 nM
C#Cc1c(F)ccc2cc(O)cc(-c3cc4nc(OCC5(CN6CC[C@@H](F)C6)CC5)nc(N5[C@@H]6CC[C@H]5CNC6)c4n4ccnc34)c12 [Example 16, 4-(1-((1R,5S)-3,8-diazabicyclo[3.2.1]octan-8-yl)-3-((1-(((R)-3-fluoropyrrolidin-1-yl)methyl)cyclopropyl)methoxy)imidazo[1′,2′:1,6]pyrido[3,2-d]pyrimidin-6-yl)-5-ethynyl-6-fluoronaphthalen-2-ol]	9.01 °C	4.27 °C	176 nM	94 nM
C#Cc1c(F)ccc2cc(O)cc(-c3cc4nc(OC[C@@]56CCCN5C/C(=C\F)C6)nc(N5[C@@H]6CC[C@H]5CNC6)c4n4ccnc34)c12 [Example 23, 4-(1-((1R,5S)-3,8-diazabicyclo[3.2.1]octan-8-yl)-3-(((S,Z)-2-(fluoromethylene)tetrahydro-1H-pyrrolizin-7a(5H)-yl)methoxy)imidazo[1′,2′:1,6]pyrido[3,2-d]pyrimidin-6-yl)-5-ethynyl-6-fluoronaphthalen-2-ol]	9.90 °C	6.94 °C	25 nM	24 nM
C#Cc1c(F)ccc2cc(O)cc(-c3cc4nc(OC[C@@]56CCCN5C/C(=C\F)C6)nc(N5C[C@H]6CC[C@@H](C5)N6)c4n4ccnc34)c12 [Example 29, 4-(1-((1R,5S)-3,8-diazabicyclo[3.2.1]octan-3-yl)-3-(((S,Z)-2-(fluoromethylene)tetrahydro-1H-pyrrolizin-7a(5H)-yl)methoxy)imidazo[1′,2′:1,6]pyrido[3,2-d]pyrimidin-6-yl)-5-ethynyl-6-fluoronaphthalen-2-ol]	12.01 °C	6.82 °C	15 nM	19 nM
